Measurements reported in US20020151734A1, “12-HETrE analogs and methods of use thereof” (priority 2001, published 2002).
*1 amine or outer side, *2 acyl side, *3 side chain or, on linkers, in order; H or OH if unused. Where a SMILES comes first, the peptide text is derived from it. Bridges are numbered along the chain shown (N, C = ends). Roman numbers before positions name the chains, in order. [ ]: non-standard residue; d: D form. Actinocin(9to1) = Cc1c2oc3c(C)ccc(C(=O)[*:1])c3nc-2c(C(=O)[*:2])c(N)c1=O; NMeV = CN[C@H](C(=O)O)C(C)C; Sar = CNCC(=O)O

Legend:
[1] = system: RLME cells; experiment: Inhibition of [^3H]12(R)-HETrE binding to RLME cells; conditions: analog 1 μM; for % Inhibition of [^3H]12(R)-HETrE binding: [^3H]12(R)-HETrE at 10 nM, RLME cells; for Result (agonist or antagonist): classed from % inhibition of [^3H]12(R)-HETrE binding
Description: Alternatively, the antagonistic or agonistic activity of 12-HETrE analogs may be measured by determining the percentage of inhibition of [^3H]12(R)-HETrE binding at 10 nM to RLME cells. Generally, inhibition of [^3H]12(R)-HETrE binding greater than 50% is indicative of agonists and inhibition lower than 50% is indicative of antagonists.

[2] = system: VEGF mRNA; experiment: VEGF mRNA levels in microvessel endothelial (RLMVE) cells by slot blot analysis; format: cell-based; conditions: for effect on 12(R)-HETrE-induced VEGF mRNA/expression: co-incubation with 12(R)-HETrE
Description: The antagonistic or agonistic activity of 12-HETrE analogs may be measured by measuring increases in vascular cadothelial growth factor (VEGF) mRNA following incubation of microvessel endothelial cells (RLMVE cells) with 12(R)-HETrE and other compounds followed by slot blot analysis, as described in the Examples. […] In this way the 12-HETrE analogs 8-(R) and 8-(S) were determined to be 12(R)-HETrE agonists.
12(R)-HETrE increased VEGF mRNA levels in a time-dependent manner. A 5-fold increase over the control levels was observed 45 min after addition of 12(R)-HETrE. These levels gradually declined to the control levels by 48 h. […] 12(R)-HETrE increased VEGF mRNA in a concentration-dependent manner with 0.1 nM having the maximal effect.
Human VEGF cDNA was used as a probe for slot blot analysis to measure increases in VEGF mRNA following incubation of RLMVE cells with 12(R)-HETrE and 12-HETrE analogs. To measure agonistic activity compounds were added to the incubation medium at concentration of 0.1, 1, and 10 nM and their effect on VEGF mRNA levels after 45 min incubation was measured in comparison to that of 12(R)-HETrE at the same concentration. To measure antagonistic activity, compounds at the above concentrations were added with 0.1 nM 12(R)-HETrE and 45 min later RNA extracted samples were processed for slot blot analysis.

| Structure (SMILES) | % Inhibition of [^3H]12(R)-HETrE binding [1] [%] | Result (agonist or antagonist) [1] | further results |
| --- | --- | --- | --- |
| CCCCC/C=C\C[C@@H](O)CCCCC/C=C\CCCC(=O)O [7-(S), 12(S)-Hydroxyeicosa-5,(Z)14(Z)-dienoic acid] | 69.5 | Agonist (inhibition of [^3H]12(R)-HETrE binding greater than 50% is indicative of agonists) | – |
| CCCCCC=CC[C@H](O)CCC=CCC=CCCCC(=O)O [12(R)-HETrE, 12(R)-hydroxy-5,8,14-eicosatrienoic acid] | 69.8 | – | time by which VEGF mRNA levels declined to the control levels ([2]; 0.1 nM): ≤ 48 h; increase in VEGF mRNA over the control levels ([2]; 0.1 nM, 45 min after addition): 5 fold; concentration having the maximal effect on VEGF mRNA ([2]; concentration-dependent increase): 0.1 nM |
| CCCCC/C=C\C[C@H](O)CC/C=C\CC#CCCCC(=O)O [3-(R), 12(R)-hydroxyeicosa-8(Z),14(Z)-dien-5-ynoic acid] | 58.1 | Agonist (inhibition of [^3H]12(R)-HETrE binding greater than 50% is indicative of agonists) | – |
| CCCCC/C=C\C[C@@H](O)CC/C=C\C/C=C\CCCC(=O)O [12(S)-HETrE, 12(S)-(5Z,8Z,14Z)-12-hydroxyeicosa-5,8,14-trienoic acid, reference compound] | 62.4 | Agonist (inhibition of [^3H]12(R)-HETrE binding greater than 50% is indicative of agonists) | – |
| CCCCC/C=C\C[C@@H](O)CC/C=C\CC#CCCCC(=O)O [3-(S), 12(S)-Hydroxyeicosa-8(Z),14(Z)-dien-5-ynoic acid] | 23.6 | Antagonist (inhibition lower than 50% is indicative of antagonists) | – |
| CCCCC/C=C\C[C@@H](O)CC/C=C\C/C=C\CCCC(=O)NS(C)(=O)=O [1-a-(S), N-(Methylsulfonyl)-12(S)-hydroxyeicosa-5(Z),8(Z),14(Z)-trienamide] | 33.3 | Antagonist (inhibition lower than 50% is indicative of antagonists) | increase in VEGF mRNA (densitometry) ([2]; 1 nM, 45 min incubation): 5 fold; agonistic activity by VEGF mRNA increase ([2]; slot blot analysis): significant agonistic activity |
| CCCCCCCC[C@H](O)CC/C=C\C/C=C\CCCC(=O)O [6-(S), 12(S)-Hydroxyeicosa-5(Z),8(Z)-dienoic acid] | 73.0 | Agonist (inhibition of [^3H]12(R)-HETrE binding greater than 50% is indicative of agonists) | – |
| CCCCC/C=C\C[C@H](CC/C=C\C/C=C\CCCC(=O)O)OC [2-(S), 12(S)-Methoxyeicosa-5(Z),8(Z),14(Z)-trienoic acid] | 34.2 | Antagonist (inhibition lower than 50% is indicative of antagonists) | – |
| CCCCC/C=C\C[C@H](O)CC/C=C\C/C=C\COCC(=O)O [4-a-(R), (9(R)-Hydroxyheptadeca-2(Z),5(Z),11(Z)-trienyloxy)acetic acid] | 48.0 | Antagonist (inhibition lower than 50% is indicative of antagonists) | – |
| CCCCCCCC[C@@H](O)CC/C=C\C/C=C\CCCC(=O)O [6-(R), 12(R)-Hydroxyeicosa-5(Z),8(Z)-dienoic acid] | 87.2 | Agonist (inhibition of [^3H]12(R)-HETrE binding greater than 50% is indicative of agonists) | – |
| CCCCC/C=C\C[C@@H](CC/C=C\C/C=C\CCCC(=O)O)OC [2-(R), 12(R)-Methoxyeicosa-5(Z),8(Z),14(Z)-trienoic acid] | 38.6 | Antagonist (inhibition lower than 50% is indicative of antagonists) | – |
| CCCCC/C=C\C[C@H](O)CC/C=C\C/C=C\CCCC(=O)NS(C)(=O)=O [1-a-(R), N-(Methylsulfonyl)-12(R)-hydroxyeicosa-5(Z),8(Z),14(Z)-trienamide] | 62.6 | Agonist (inhibition of [^3H]12(R)-HETrE binding greater than 50% is indicative of agonists) | – |
| CCCCC/C=C\C[C@H](O)CC/C=C\CCCCCCC(=O)O [5-(R), 12(R)-Hydroxyeicosa-8(Z),14(Z)-dienoic acid] | 92.4 | Agonist (inhibition of [^3H]12(R)-HETrE binding greater than 50% is indicative of agonists) | – |
| CCCCC/C=C\C[C@H](O)CCCCC/C=C\CCCC(=O)O [7-(R), 12(R)-Hydroxy-eicosa-5(Z),14(Z)-dienoic acid] | 88.7 | Agonist (inhibition of [^3H]12(R)-HETrE binding greater than 50% is indicative of agonists) | – |
| CCCCC/C=C\C[C@@H](O)CC/C=C\CCCCCCC(=O)O [5-(S), 12(S)-Hydroxyeicosa-8(Z),14(Z)-dienoic acid] | 54.5 | Agonist (inhibition of [^3H]12(R)-HETrE binding greater than 50% is indicative of agonists) | – |
| Cc1c2oc3c(C)ccc(C(=O)N[C@@H]4C(=O)N[C@H](C(C)C)C(=O)N5CCC[C@H]5C(=O)N(C)CC(=O)N(C)[C@@H](C(C)C)C(=O)O[C@@H]4C)c3nc-2c(C(=O)N[C@@H]2C(=O)N[C@H](C(C)C)C(=O)N3CCC[C@H]3C(=O)N(C)CC(=O)N(C)[C@@H](C(C)C)C(=O)O[C@@H]2C)c(N)c1=O [actinomycin D] (I: T[dV]P[Sar][NMeV] / II: T[dV]P[Sar][NMeV]; ester I:1-I:C, II:1-II:C; linker I:N-II:N via Actinocin(9to1)) | – | – | effect on 12(R)-HETrE-induced VEGF mRNA/expression [2]: abolished |
| C[C@@H]1C[C@@H]([C@H](O)CC2CC(=O)NC(=O)C2)C(=O)[C@@H](C)C1 [cycloheximide] | – | – | effect on 12(R)-HETrE-induced VEGF mRNA/expression [2]: did not affect |
| CCCCC/C=C\C[C@@H](O)CC/C=C\C/C=C\COCC(=O)O [4-a-(S)] | 24.3 | Antagonist (inhibition lower than 50% is indicative of antagonists) | – |
